Measurements published in patent US10214545B2, “Amido-substituted imidazopyridazines useful in the treatment of hyper-proliferative and/or angiogenesis disorders” (BAYER PHARMA AKTIENGESELLSCHAFT, priority 2014, dated 2019).

Experiments:
human full-length MKNK1 [1] = target: T1, human full-length MKNK1 (Homo sapiens (Human), UniProt Q9BUB5, T344D); experiment: MKNK1 kinase assay (TR-FRET, 10 μM ATP); format: biochemical; settings: 15 min preincubation, GST-MKNK1 (T344D)
Procedure: MKNK1-inhibitory activity of compounds of the present invention was quantified employing the MKNK1 TR-FRET assay as described in the following paragraphs. […] As substrate for the kinase reaction the biotinylated peptide biotin-Ahx-[…]
For the assay 50 nL of a 100 fold concentrated solution of the test compound in DMSO was pipetted into a black low volume 384 well microtiter plate (Greiner Bio-One, Frickenhausen, Germany), 2 μL of a solution of MKNK1 in aqueous assay buffer [50 mM HEPES pH 7.5, 5 mM magnesium chloride, 1.0 mM dithiothreitol, 0.005% (v/v) Nonidet-P40 (Sigma)] was added and the mixture was incubated for 15 min at 22° C. to allow pre-binding of the test compounds to the enzyme before the start of the kinase reaction. […] The concentration of MKNK1 was adjusted depending of the activity of the enzyme lot and was chosen appropriate to have the assay in the linear range, typical concentrations were in the range of 0.05 μg/mi. The reaction was stopped by the addition of 5 μL of a solution of TR-FRET detection reagents (5 nM streptavidine-XL665 [Cisbio Bioassays, Codolet, France] and 1 nM anti-ribosomal protein […] (pSer236)-antibody from Invitrogen [#44921G] and 1 nM LANCE EU-W1024 labeled ProteinG [Perkin-Elmer, product no. AD0071]) in an aqueous EDTA-solution (100 mM EDTA, 0.1% (w/v) bovine serum albumin in 50 mM HEPES pH 7.5).
(§1) The resulting mixture was incubated for 1 h at 22° C. to allow the formation of complex between the phosphorylated biotinylated peptide and the detection reagents. Subsequently the amount of phosphorylated substrate was evaluated by measurement of the resonance energy transfer from the Eu-chelate to the streptavidine-XL.

human full-length MKNK1 [2] = target: T1, human full-length MKNK1; experiment: MKNK1 kinase high ATP assay (TR-FRET, 2 mM ATP); format: biochemical; settings: 15 min preincubation, GST-MKNK1 (T344D)
Procedure: MKNK1-inhibitory activity at high ATP of compounds of the present invention after their preincubation with MKNK1 was quantified employing the TR-FRET-based MKNK1 high ATP assay as described in the following paragraphs.
As substrate for the kinase reaction the biotinylated peptide biotin-Ahx-[…]
For the assay 50 nL of a 100 fold concentrated solution of the test compound in DMSO was pipetted into a black low volume 384 well microtiter plate (Greiner Bio-One, Frickenhausen, Germany), 2 μL of a solution of MKNK1 in aqueous assay buffer [50 mM HEPES pH 7.5, 5 mM magnesium chloride, 1.0 mM dithiothreitol, 0.005% (v/v) Nonidet-P40 (Sigma)] was added and the mixture was incubated for 15 min at 22° C. to allow pre-binding of the test compounds to the enzyme before the start of the kinase reaction. Then the kinase reaction was started by the addition of 3 μL of a solution of adenosine-tri-phosphate (ATP, 3.3 mM=>final conc. in the 5 μL assay volume is 2 mM) and substrate (0.1 μM=>final conc. in the 5 μL assay volume is 0.06 μM) in assay buffer and the resulting mixture was incubated for a reaction time of 30 min at 22° C. The concentration of MKNK1 was adjusted depending of the activity of the enzyme lot and was chosen appropriate to have the assay in the linear range, typical concentrations were in the range of 0.003 μg/mL. The reaction was stopped by the addition of 5 μL of a solution of TR-FRET detection reagents (5 nM streptavidine-XL665 [Cisbio Bioassays, Codolet, France] and 1 nM anti-ribosomal protein S6 (pSer236)-antibody from Invitrogen [#44921G] and 1 nM LANCE EU-W1024 labeled ProteinG [Perkin-Elmer, product no. AD0071]) in an aqueous EDTA-solution (100 mM EDTA, 0.1% (w/v) bovine serum albumin in 50 mM HEPES pH 7.5).
as §1

T1 sequence (Q9BUB5 other isoform, or with tags, fused parts or gaps T344D): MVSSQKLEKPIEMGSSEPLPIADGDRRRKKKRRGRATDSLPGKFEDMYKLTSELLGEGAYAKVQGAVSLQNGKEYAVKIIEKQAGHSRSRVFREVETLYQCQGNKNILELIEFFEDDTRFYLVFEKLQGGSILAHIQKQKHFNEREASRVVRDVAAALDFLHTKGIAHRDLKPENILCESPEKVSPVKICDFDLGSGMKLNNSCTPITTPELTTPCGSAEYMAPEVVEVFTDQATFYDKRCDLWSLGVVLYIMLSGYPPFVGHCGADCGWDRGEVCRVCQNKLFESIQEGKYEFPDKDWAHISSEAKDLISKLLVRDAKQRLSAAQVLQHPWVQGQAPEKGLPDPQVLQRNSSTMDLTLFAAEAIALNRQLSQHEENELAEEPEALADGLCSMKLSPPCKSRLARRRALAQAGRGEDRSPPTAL

Row | SMILES | IC50 (human full-length MKNK1 [1]) [nM] | IC50 (human full-length MKNK1 [2]) [nM]
1 | CN(C)CCCNC(=O)c1ccc2ncc(-c3cc4ccccc4o3)n2n1 [Example 10, 3-(1-Benzofuran-2-yl)-N-[3-(dimethylamino)propyl]imidazo[1,2-b]pyridazine-6-carboxamide] | 3.3 | 7.9
2 | CN1CCN(C(=O)c2ccc3ncc(-c4cc5c(N6CCOCC6)nccc5o4)n3n2)CC1 [Example 4, (4-Methylpiperazin-1-yl){3-[4-(morpholin-4-yl)furo[3,2-c]pyridin-2-yl]imidazo-[1,2-b]pyridazin-6-yl}methanone] | 110 | 280
3 | O=C(NCc1ccccc1)c1ccc2ncc(-c3cc4ccccc4o3)n2n1 [Example 14, 3-(1-Benzofuran-2-yl)-N-benzylimidazo[1,2-b]pyridazine-6-carboxamide] | 5.2 | 12
4 | CN(C)CCNC(=O)c1ccc2ncc(-c3cc4ccccc4o3)n2n1 [Example 17, 3-(1-Benzofuran-2-yl)-N-[2-(dimethylamino)ethyl]imidazo[1,2-b]pyridazine-6-carboxamide] | 1.7 | 34
5 | CC(C)[C@H](CO)NC(=O)c1ccc2ncc(-c3cc4ccccc4o3)n2n1 [Example 13, 3-(1-Benzofuran-2-yl)-N-[(2R)-1-hydroxy-3-methylbutan-2-yl]imidazo[1,2-b]-pyridazine-6-carboxamide] | 6.8 | 12
6 | CN(Cc1ccccc1)C(=O)c1ccc2ncc(-c3cc4ccccc4o3)n2n1 [Example 16, 3-(1-Benzofuran-2-yl)-N-benzyl-N-methylimidazo[1,2-b]pyridazine-6-carboxamide] | 8.8 | 23
7 | CC(C)[C@@H](CO)NC(=O)c1ccc2ncc(-c3cc4ccccc4o3)n2n1 [Example 18, 3-(1-Benzofuran-2-yl)-N-[(2S)-1-hydroxy-3-methylbutan-2-yl]imidazo[1,2-b]-pyridazine-6-carboxamide] | 1.3 | 42
8 | COCCNC(=O)c1ccc2ncc(-c3cc4ccccc4o3)n2n1 [Example 15, 3-(1-Benzofuran-2-yl)-N-(2-methoxyethyl)imidazo[1,2-b]pyridazine-6-carboxamide] | 8 | 15
9 | COCCCNC(=O)c1ccc2ncc(-c3cc4ccccc4o3)n2n1 [Example 12, 3-(1-Benzofuran-2-yl)-N-(3-methoxypropyl)imidazo[1,2-b]pyridazine-6-carboxamide] | 4.9 | 9.5
10 | CN(C)CCN(C)C(=O)c1ccc2ncc(-c3cc4c(N5CCOCC5)nccc4o3)n2n1 [Example 3, N-[2-(dimethylamino)ethyl]-N-methyl-3-[4-(morpholin-4-yl)furo[3,2-c]pyridin-2-yl]imidazo[1,2-b]pyridazine-6-carboxamide] | 88 | 140
11 | C[C@H](CO)NC(=O)c1ccc2ncc(-c3cc4ccccc4o3)n2n1 [Example 11, 3-(1-Benzofuran-2-yl)-N-[(2R)-1-hydroxypropan-2-yl]imidazo[1,2-b]pyridazine-6-carboxamide] | 4.1 | 8.8
